In experiment [1] the target is T1, PAI-1 (Homo sapiens, UniProt P05121). The experiment is described as follows: Competition ELISA: binding of vitronectin onto immobilized activated PAI-1. Also on record: purchased American Diagnostica, New York. The note with it: for level of inhibition achieved: FIG. 7, vitronectin 0.5 μg/ml, increasing peptide concentrations. As for the experimental part: Protein concentration was determined by the method described by Bradford, 1976. The binding of vitronectin to immobilized PAI-1 was conducted as described by Salonen et al., 1989. The activation of PAI-1 by sodium dodecylsulfate was carried out as described by Katagiri et al., 1988. Amino acid sequencing was performed with an Applied Biosystem 475A sequencer.
T1 sequence (P05121 24-402): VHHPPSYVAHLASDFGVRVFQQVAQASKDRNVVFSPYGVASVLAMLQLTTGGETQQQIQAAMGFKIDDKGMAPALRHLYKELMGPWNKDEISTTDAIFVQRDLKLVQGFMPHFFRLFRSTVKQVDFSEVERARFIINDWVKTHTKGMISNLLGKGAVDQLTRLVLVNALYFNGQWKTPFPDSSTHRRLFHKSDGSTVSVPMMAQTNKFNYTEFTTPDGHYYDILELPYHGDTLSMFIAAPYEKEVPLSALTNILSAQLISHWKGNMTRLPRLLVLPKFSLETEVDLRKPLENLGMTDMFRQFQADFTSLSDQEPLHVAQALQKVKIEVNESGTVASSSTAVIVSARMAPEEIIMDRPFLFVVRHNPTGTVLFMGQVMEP
Each of the synthetic peptides shown in Scheme I and each of the peptides containing amino acids with a D configuration (BP7, BP8 and BP14) was tested by a competition ELISA assay for its ability to inhibit the binding of vitronectin to immobilized activated PAI-1. The first screening (FIGS. 3A-3D) was carried out with an identical molar concentration (25 μM) of the peptides. In view of a possible variability in such tests (mainly due to some variability in the activated PAI-1 coating of the plates), a control of vitronectin alone was run alongside in each plate for reference.
The various synthetic peptides (all 50 μM) were dissolved in 50 μl of a buffer composed of PBS, Tween 20 (0.01%), polyethylene-glycol (average M.W. 8 kDa) (4% w/v). Each of the samples was added to a microtiter well coated with SDS-activated PAI, prepared as described by Katagiri et al., 1988. After an incubation of 30 min at 22° C., aliquots (50 μl) of a vitronectin solution (at various concentrations) in the same buffer were added to each well. This was followed by an incubation for 2 hrs at 37° C. The amount of bound vitronectin was determined with specific rabbit anti-human Vn antibodies (1:1000 dilution), followed by a β-galactosidase-linked protein A and using o-nitrophenyl-β-D-galactopyranoside (ONPG) as a substrate. The enzymatic reaction was allowed to proceed and the absorbance at 405+490 nm was measured. Each point in the graphs represents the mean of triplicate determinations. […]
Background: ELISA stands for enzyme-linked immunosorbent assay.

Experiment [2] addresses T1, PAI-1. The experiment is described as follows: Release of PAI-1 activity by endothelial cells in culture. The class given is cell-based. The note with it: human endothelial cell system, 6 hours, control = 100%. Here is the method: PAI-1 is determined in the supernatant of HUVEC cells according to the method of Chmielewska et al., 1983. Briefly, cells are cultured in semiconfluent way with or without ECM. The culture medium is changed for Hank's balanced salt solution with 2% FCS and the tested substances with or without added plasmin (5 μg/ml) are diluted in this buffer and incubated with the cells for 6 hours. Samples from the cell supernatant are assayed for the PAI-1 activity.
For the PAI-1 assay, the cell supernatant is incubated with a fixed amount of tPA (40 U/ml) and the residual activity of the tPA is determined by a substrate composed of plasminogen (0.1μg/ml), chromogenic substrate (S-2251) and stimulator (Kabi, Sweden). After incubation with the substrate, O.D. is measured at 405 run and the amount of the inhibitor is calculated from calibration curve. PAI-1 antigen may also be determined with commercial kits.

Where a SMILES comes first, the peptide text is derived from it. Where no end group is shown, it is not given here.

Regarding “BP7: same sequence as BP6 (K348-Q363) but the underlined residues in Scheme II have D configuration (KKQRFRHRNRKGYRSQ; also: some residues are D-form, positions not given here (underlining not shown))”, the “binding to immobilized PAI-1 (effect on vitronectin binding)” value in the experiment with PAI-1 [1] (D-configuration peptides, 1-10 μM, FIG. 8) is listed as “bind to immobilized PAI-1”.

On to `C[C@H](NC(=O)[C@H](CCCNC(=N)N)NC(=O)[C@H](CO)NC(=O)[C@@H]1CCCN1C(=O)[C@H](CCCNC(=N)N)NC(=O)[C@H](CCCNC(=N)N)NC(=O)[C@H](CO)NC(=O)[C@H](CC(N)=O)NC(=O)[C@H](CCC(N)=O)NC(=O)[C@H](CC(N)=O)NC(=O)[C@H](CCCNC(=N)N)NC(=O)CNC(=O)[C@H](CCCNC(=N)N)NC(=O)[C@H](CO)NC(=O)[C@H](Cc1c[nH]cn1)NC(=O)CNC(=O)[C@H](CCCNC(=N)N)NC(=O)[C@H](CCC(N)=O)NC(=O)[C@@H](N)CO)C(=O)O` [BP4] (H-SQRGHSRGRNQNSRRPSRA-OH), for which, on PAI-1 [1], the “level of inhibition achieved” value is on record as “approximately 65%”. For the same compound, the PAI-1 activity increase over control at 10 µM on PAI-1 [2] (1 × 10^-5 M, read-out: PAI activity % above control (mean)) came out at 29%. Besides, at PAI-1 [2] (1 × 10^-6 M, read-out: PAI activity % above control (mean)), the PAI-1 activity increase over control at 1 µM is 47%. Also, the PAI-1 activity increase over control at 0.1 µM at PAI-1 [2] (1 × 10^-7 M, read-out: PAI activity % above control (mean)) was 0%. In addition, the PAI-1 activity increase over control at 0.33 µM on PAI-1 [2] (3.3 × 10^-7 M, read-out: PAI activity % above control (mean)) was 17%.

In the case of `N=C(N)NCCC[C@H](NC(=O)[C@H](Cc1ccc(O)cc1)NC(=O)CNC(=O)[C@H](CCCCN)NC(=O)[C@H](CCCNC(=N)N)NC(=O)[C@H](CC(N)=O)NC(=O)[C@H](CCCNC(=N)N)NC(=O)[C@H](Cc1c[nH]cn1)NC(=O)[C@H](CCCNC(=N)N)NC(=O)[C@H](Cc1ccccc1)NC(=O)[C@H](CCCNC(=N)N)NC(=O)[C@H](CCC(N)=O)NC(=O)[C@H](CCCCN)NC(=O)[C@@H](N)CCCCN)C(=O)N[C@@H](CO)C(=O)N[C@@H](CCC(N)=O)C(=O)O` [BP6] (H-KKQRFRHRNRKGYRSQ-OH), the “level of inhibition achieved” value at PAI-1 [1] was “approximately 65%”. The same compound returned a PAI-1 activity decrease below control at 10 µM at PAI-1 [2] (1 × 10^-5 M) of 19.5%. The PAI-1 activity decrease below control at 1 µM at PAI-1 [2] (1 × 10^-6 M) worked out at 36.5%. For the same compound, the PAI-1 activity decrease below control at 0.1 µM at PAI-1 [2] (1 × 10^-7 M) is 19%. On PAI-1 [2] (1 × 10^-8 M), this compound displayed a PAI-1 activity decrease below control at 0.01 µM of 19%. The compound also registered a PAI-1 activity decrease below control at 0.33 µM on PAI-1 [2] (3.3 × 10^-7 M) of 39%.

For the compound `N=C(N)NCCC[C@H](NC(=O)CNC(=O)[C@H](CCCNC(=N)N)NC(=O)[C@H](CO)NC(=O)[C@H](Cc1c[nH]cn1)NC(=O)CNC(=O)[C@H](CCCNC(=N)N)NC(=O)[C@H](CCC(N)=O)NC(=O)[C@H](CO)NC(=O)[C@H](CCCNC(=N)N)NC(=O)[C@H](Cc1ccc(O)cc1)NC(=O)CNC(=O)[C@@H](N)CCCCN)C(=O)O` [BP5] (H-KGYRSQRGHSRGR-OH), the “level of inhibition achieved” value on PAI-1 [1] is “approximately 65%”.

For the origin of these results see US5491129A, “Synthetic peptides derived from vitronectin and pharmaceutical compositions comprising them” (Yeda Research and Development Co. Ltd., priority 1992, dated 1996).
